In brackets after ≈: the same amount, converted by molar mass. Read-outs that look alike come from different tables or passages of the source.
Legend:
S. aureus 4220 = assay: MIC, double dilution method, S. aureus 4220; type: cell-based; settings: Staphylococcus aureus, 4220, 24 h
S. aureus ATCC 6538 = assay: MIC, double dilution method, S. aureus ATCC 6538; type: cell-based; settings: Staphylococcus aureus, ATCC6538, 24 h
MRSA ATCC 43300 = assay: MIC, double dilution method, MRSA ATCC 43300; type: cell-based, Methicillin-resistant Staphylococcus aureus; settings: MRSA ATCC 43300, Gram-positive, 24 h culture
P. aeruginosa CMCC 10211 = assay: MIC, double dilution method, P. aeruginosa CMCC 10211; type: cell-based; settings: Pseudomonas aeruginosa
E. coli ATCC 25922 = assay: MIC, double dilution method, E. coli ATCC 25922; type: cell-based; settings: Escherichia coli
E. coli 1924 = assay: MIC, double dilution method, E. coli 1924; type: cell-based, Escherichia coli
C. albicans CMCC 98001 = assay: MIC, double dilution method, C. albicans CMCC 98001; type: cell-based, Candida albicans; settings: for MIC: C. albicans CMCC 98001, fungus, 24 h culture; for antifungal activity (class in words): C. albicans CMCC 98001
[1] = S. aureus 4220, Gram-positive, 24 h culture, read-out: MIC
[2] = S. aureus ATCC 6538, Gram-positive, 24 h culture, read-out: MIC
[3] = Staphylococcus aureus, 24 h, read-out: MIC
[4] = CMCC10211, P. aeruginosa CMCC 10211, Gram-negative, 24 h culture, read-out: MIC
[5] = ATCC25922, E. coli ATCC 25922, Gram-negative, 24 h culture, read-out: MIC
[6] = Escherichia coli, E. coli 1924, Gram-negative, 24 h culture, read-out: MIC
[7] = Candida albicans, CMCC98001, 24 h, read-out: MIC
[8] = Candida albicans, CMCC98001, 24 h

Compound	MIC (S. aureus 4220; [1]) [µg/mL]	MIC (S. aureus ATCC 6538; [2]) [µg/mL]	MIC (MRSA ATCC 43300; [3]) [µg/mL]	MIC (P. aeruginosa CMCC 10211; [4]) [µg/mL]	MIC (E. coli ATCC 25922; [5]) [µg/mL]	MIC (E. coli 1924; [6]) [µg/mL]	MIC (C. albicans CMCC 98001; [7]) [µg/mL]	MIC (S. aureus 4220) [µg/mL]	MIC (S. aureus ATCC 6538) [µg/mL]	MIC (MRSA ATCC 43300) [µg/mL]	MIC (MRSA ATCC 43300; listed as 10v) [µg/mL]	MIC (P. aeruginosa CMCC 10211; CMCC10211, 24 h) [µg/mL]	MIC (E. coli ATCC 25922; ATCC25922, 24 h) [µg/mL]	MIC (E. coli 1924; Escherichia coli, 1924, 24 h) [µg/mL]	MIC (C. albicans CMCC 98001; [8]) [µg/mL]	MIC (MRSA ATCC 43300; Staphylococcus aureus, 24 h) [µg/mL]	antifungal activity (class in words) (C. albicans CMCC 98001)	MIC (C. albicans CMCC 98001) [µg/mL]
C/C(O)=C1/C(=O)N(C)c2ccc(C#N)cc21 [Compound 5p, (Z)-3-(1-hydroxyethylidene)-1-methyl-2-oxoindoline-5-carbonitrile]	64 (≈ 299 µM)	64 (≈ 299 µM)	> 64	> 64	> 64	> 64	> 64											
Cc1ccc(/C(O)=C2/C(=O)N(C)c3ccccc32)cc1 [Compound 10c, (Z)-3-(hydroxy(p-tolyl)methylene)-1-methylindolin-2-one]								8 (≈ 30.2 µM)	2 (≈ 7.54 µM)	16 (≈ 60.3 µM)	0.5 to 16	> 64	64 (≈ 241 µM)	8 (≈ 30.2 µM)	64 (≈ 241 µM)			
C/C(O)=C1/C(=O)N(C)c2c(F)cccc21 [Compound 5e, (Z)-7-fluoro-3-(1-hydroxyethylidene)-1-methylindolin-2-one]		64 (≈ 309 µM)	64 (≈ 309 µM)	> 64	> 64	16 (≈ 77.2 µM)	32 (≈ 154 µM)											
C/C(O)=C1/C(=O)N(C)c2cc(F)ccc21 [Compound 5f, (Z)-6-fluoro-3-(1-hydroxyethylidene)-1-methylindolin-2-one]	> 64	> 64	> 64	> 64	> 64	32 (≈ 154 µM)	64 (≈ 309 µM)											
C/C(O)=C1/C(=O)N(C)c2cc(Cl)ccc21 [Compound 5j, (Z)-6-chloro-3-(1-hydroxyethylidene)-1-methylindolin-2-one]	32 (≈ 143 µM)		> 64	> 64	> 64	8 (≈ 35.8 µM)	64 (≈ 286 µM)											
COc1cccc2c1N(C)C(=O)/C2=C(/C)O [Compound 5o, (Z)-3-(1-hydroxyethylidene)-7-methoxy-1-methylindolin-2-one]	> 64	> 64	64 (≈ 292 µM)	64 (≈ 292 µM)	> 64	16 (≈ 73 µM)	32 (≈ 146 µM)											
C/C(O)=C1/C(=O)N(C)c2ccc(Br)cc21 [Compound 5n, (Z)-5-bromo-3-(1-hydroxyethylidene)-1-methylindolin-2-one]	32 (≈ 119 µM)	32 (≈ 119 µM)	> 64	> 64	> 64	8 (≈ 29.8 µM)	64 (≈ 239 µM)											
CN1C(=O)/C(=C(\O)c2ccc(Br)cc2)c2ccccc21 [Compound 10i, (Z)-3-((4-bromophenyl)(hydroxy)methylene)-1-methylindolin-2-one]								16 (≈ 48.5 µM)	2 (≈ 6.06 µM)			> 64	> 64	8 (≈ 24.2 µM)	> 64	16 (≈ 48.5 µM)		
C/C(O)=C1/C(=O)N(C)c2cc(C)ccc21 [Compound 5c, (Z)-3-(1-hydroxyethylidene)-1,6-dimethylindolin-2-one]	> 64	64 (≈ 315 µM)	> 64	64 (≈ 315 µM)	64 (≈ 315 µM)	16 (≈ 78.7 µM)	16 (≈ 78.7 µM)											
C/C(O)=C1/C(=O)N(C)c2ccc(F)cc21 [Compound 5g, (Z)-5-fluoro-3-(1-hydroxyethylidene)-1-methylindolin-2-one]	> 64	64 (≈ 309 µM)	> 64	> 64	> 64	64 (≈ 309 µM)	32 (≈ 154 µM)											
C/C(O)=C1/C(=O)N(C)c2c(C)cccc21 [Compound 5b, (Z)-3-(1-hydroxyethylidene)-1,7-dimethylindolin-2-one]	> 64	64 (≈ 315 µM)	> 64	64 (≈ 315 µM)	64 (≈ 315 µM)	32 (≈ 157 µM)	32 (≈ 157 µM)											
CN1C(=O)/C(=C(\O)c2ccc(Cl)cc2)c2ccccc21 [Compound 10e, (Z)-3-((4-chlorophenyl)(hydroxy)methylene)-1-methylindolin-2-one]								8 (≈ 28 µM)	2 (≈ 7 µM)			> 64	64 (≈ 224 µM)	8 (≈ 28 µM)	64 (≈ 224 µM)	16 (≈ 56 µM)		
C/C(O)=C1/C(=O)N(C)c2cc(C(F)(F)F)ccc21 [Compound 5r, (Z)-3-(1-hydroxyethylidene)-1-methyl-6-(trifluoromethyl)indolin-2-one]	64 (≈ 249 µM)			> 64	> 64	> 64	8 to 16 (≈ 31.1 to 62.2 µM)										moderate antifungal activity	16 (≈ 62.2 µM)
C/C(O)=C1/C(=O)N(C)c2c(Cl)cccc21 [Compound 5i, (Z)-7-chloro-3-(1-hydroxyethylidene)-1-methylindolin-2-one]	32 (≈ 143 µM)	32 (≈ 143 µM)	64 (≈ 286 µM)	64 (≈ 286 µM)	> 64	8 (≈ 35.8 µM)	64 (≈ 286 µM)											
COc1ccc2c(c1)/C(=C(\C)O)C(=O)N2Cc1ccccc1 [Compound 5s, (Z)-1-benzyl-3-(1-hydroxyethylidene)-5-methoxyindolin-2-one]	32 (≈ 108 µM)	64 (≈ 217 µM)	64 (≈ 217 µM)	> 64	> 64	16 (≈ 54.2 µM)	> 64											
COc1c(N2CCNC(C)C2)c(F)cc2c(=O)c(C(=O)O)cn(C3CC3)c12 (stereo not drawn) [Gati, Gatifloxacin, reference compound]	0.5 (≈ 1.33 µM)	0.5 (≈ 1.33 µM)	0.5 (≈ 1.33 µM)	0.5 (≈ 1.33 µM)	0.5 (≈ 1.33 µM)	0.5 (≈ 1.33 µM)	> 64											
C/C(O)=C1/C(=O)N(C)c2c(Br)cccc21 [Compound 5l, (Z)-7-bromo-3-(1-hydroxyethylidene)-1-methylindolin-2-one]	32 (≈ 119 µM)	64 (≈ 239 µM)	64 (≈ 239 µM)	> 64	> 64	8 (≈ 29.8 µM)	64 (≈ 239 µM)											
C/C(O)=C1/C(=O)N(C)c2ccc(Cl)cc21 [Compound 5k, (Z)-5-chloro-3-(1-hydroxyethylidene)-1-methylindolin-2-one]		16 (≈ 71.5 µM)	> 64	> 64	> 64	1 (≈ 4.47 µM)	32 (≈ 143 µM)											
C/C(O)=C1/C(=O)N(C)c2cc(Br)ccc21 [Compound 5m, (Z)-6-bromo-3-(1-hydroxyethylidene)-1-methylindolin-2-one]	> 64	32 (≈ 119 µM)	64 (≈ 239 µM)	> 64	> 64	16 (≈ 59.7 µM)	64 (≈ 239 µM)											
CCN1C(=O)/C(=C(/C)O)c2ccccc21 [Compound 5t, (Z)-1-ethyl-3-(1-hydroxyethylidene) indolin-2-one]	> 64	64 (≈ 315 µM)	> 64	> 64	> 64	32 (≈ 157 µM)	32 (≈ 157 µM)											
C/C(O)=C1/C(=O)N(C)c2ccc(C(F)(F)F)cc21 [Compound 5q, (Z)-3-(1-hydroxyethylidene)-1-methyl-5-(trifluoromethyl)indolin-2-one]	64 (≈ 249 µM)		> 64	> 64	> 64	16 (≈ 62.2 µM)	> 64											
CCCN1C(=O)/C(=C(/C)O)c2ccccc21 [Compound 5v, (Z)-3-(1-hydroxyethylidene)-1-propylindolin-2-one]	64 (≈ 295 µM)	64 (≈ 295 µM)		> 64	> 64	16 (≈ 73.6 µM)	32 (≈ 147 µM)											
C/C(O)=C1/C(=O)N(Cc2ccccc2)c2ccccc21 [Compound 5u, (Z)-1-benzyl-3-(1-hydroxyethylidene)indolin-2-one]			64 (≈ 241 µM)	> 64	64 (≈ 241 µM)	2 (≈ 7.54 µM)	32 (≈ 121 µM)											
C/C(O)=C1/C(=O)N(C)c2ccc(C)cc21 [Compound 5d, (Z)-3-(1-hydroxyethylidene)-1,5-dimethylindolin-2-one]		64 (≈ 315 µM)	> 64	64 (≈ 315 µM)	> 64	2 (≈ 9.84 µM)											moderate antifungal activity	
COc1ccc(CN2C(=O)/C(=C(/C)O)c3ccccc32)cc1 [Compound 5w, (Z)-3-(1-hydroxyethylidene)-1-(4-methoxybenzyl)indolin-2-one]	> 64	64 (≈ 217 µM)	64 (≈ 217 µM)	> 64	> 64	8 (≈ 27.1 µM)	32 (≈ 108 µM)											
C/C(O)=C1/C(=O)N(C)c2cccc(F)c21 [Compound 5h, (Z)-4-fluoro-3-(1-hydroxyethylidene)-1-methylindolin-2-one]	64 (≈ 309 µM)	> 64	> 64	> 64	> 64	32 (≈ 154 µM)	8 to 16 (≈ 38.6 to 77.2 µM)										moderate antifungal activity	16 (≈ 77.2 µM)

Source: publication PMC11596972, “Synthesis and Antimicrobial Activity of 3-Alkylidene-2-Indolone Derivatives” (Molecules, 2024)
